From patent US11337950B2, “Biologically active cannabidiol analogs” (University of Mississippi, priority 2016, dated 2022)
Several values for one entry are separate records, joined by “and”; a condition that tells them apart may be missing. Identical values can stand only once.

What was measured:
[1] = In vivo eye tissue levels 90 min after topical application in Tocrisolve emulsion (Examples 12-14); parameters: species or system New Zealand albino rabbits
Procedure: Conscious male New Zealand albino rabbits were used. The formulations were applied topically into the rabbits eyes (50 μL containing the equivalent of 250 μg CBD) in Tocrisolve® emulsion formulations as described in Example 11. The animals were sacrificed 90 min. after drug application and the eye tissues harvested for analysis.
The same procedure was followed as shown under Example 12. Additional CBD analogs were tested in this example. In this example the tissue levels of both free CBD and intact analog were determined.
Formulations: Fifty microlitres of 0.5% w/v CBD in Tocrisolve emulsion (Dose: 0.25 mg)
Animal model: Conscious male new Zealand albino rabbits, Duration of the study: 90 min.
Aqueous humor, Vitreous humor, Retina-Choroid and Iris-Ciliary bodies analysed for parent compound as well as CBD.
Formulations: Fifty microlitres of 0.5% w/v Tocrisolve emulsion formulations (Dose: 0.25 mg)
Animal model: Conscious male new Zealand albino rabbits, Duration of the study: 90 min

[2] = Bioavailability of CBD-Mono-VHS from a hydrophilic suppository, PEG 1000 (Example 17); assay type: in vivo; parameters: unit not given here; conditions: rats, rectal 7.5 mg, Hydrophilic (PEG 1000) Suppository; for Plasma Concentration of CBD-Mono-VHS: individual animals
Procedure: CBD-Mono-Val-Mono-HS was formulated in PEG 1000 suppository base (a hydrophilic suppository base) at 75 mg/mL of melted base. The study was carried out in a cannulated rat model. Three animals were administered 100 μl. each of the semisolid formulation for a rectal dose of 7.5 mg CBD-Mono-VHS. […] The blood was centrifuged and the plasma was used for LC-MS/MS analysis.

[3] = Oral bioavailability of CBD-Mono-VHS in sesame seed oil (Example 18); assay type: in vivo; conditions: rats; for Plasma Concentration of CBD-Mono-VHS, Average / Plasma Concentration of CBD-Mono-VHS: oral 4 mg/animal in sesame seed oil; for Plasma Concentration of CBD-Mono-VHS: individual animals
Procedure: CBD-Mono-VHS was formulated in a sesame seed oil (Welch, Holme and Clark Co. lot #39375) formulation composed of 40 mg/mL solution of the drug substance/mi. Animals (cannulated rats, n=4) were dosed 100 μl of the oil solution by oral gavage. Blood samples were collected at 0, 0.25, 0.5, 1, 2, 4, 6, 8, and 24 hr. after dosing. The blood samples were centrifuged and the plasma was analyzed for CBD-Mono-VHS. Table 7 and FIG. 5 show the results, with very high blood levels which remain significant (>10 ng/mL) at 24 hr. after dosing.

[4] = Organ distribution of CBD-Mono-VHS after oral administration (Example 19); assay type: in vivo, rats; conditions: rat, oral 4 mg/animal
Procedure: To determine whether CBD-Mono-VHS reaches the organs and especially the brain, two cannulated rats were administered same dose as those in Example 18. One rat was sacrificed at 2 hr. after dosing and the other at 4 hr. after dosing and the organs were harvested (brain, liver, and spleen) as well as blood for analysis.

[5] = as above; assay type: in vivo, rats; conditions: rat, oral 4 mg/animal; remark: listed apart in the source
[6] = test system: morphine place preference; test: Morphine conditioned place preference, model of addiction (Example 25); conditions: mice, morphine groups, IP; CBD 2.5-20.0 mg/kg, CBD-val-HS 10.0 mg/kg
[7] = Table 3, Set 1, rabbit eye, 90 min post topical 50 μL Tocrisolve emulsion, dose 0.25 mg CBD
[8] = Table 4, Set 2, rabbit, 90 min post topical 50 μL Tocrisolve emulsion, dose 250 μg
[9] = rabbit eye, 90 min post topical, 0.25 mg CBD

## C=C(C)C1CCC(C)=CC1c1c(O)cc(CCCCC)cc1OC(=O)[C@@H](NC(=O)CCC(=O)O)C(C)C (some centres unmarked) [CBD-Mono-VHS, CBD-Mono-Valinate-Mono-Hemisuccinate]
[1]; [7]
  Analog Conc., AQ Humor: 90.3 ± 13.6 ng/g of tissue
  Analog Conc., Iris Ciliary Bodies: 1034 ± 87.4 ng/g of tissue
  Analog Conc., Retina Choroid: 689 ± 127 ng/g of tissue
  CBD Conc., Iris Ciliary Bodies: 353 ± 43^ ng/g of tissue
  CBD Conc., Retina Choroid: 194 ± 31.2 ng/g of tissue
[1]; [8]
  Analog Concentration, Aqueous Humor: 98.7 ± 19.8 ng/g of tissue
  Analog Concentration, Iris Ciliary Bodies: 422 ± 197 ng/g of tissue
  Analog Concentration, Retina Choroid: 519 ± 476 ng/g of tissue
  CBD concentration, Aqueous Humor: 61.3 ± 5.9 ng/g of tissue
  CBD concentration, Iris Ciliary Bodies: 585 ± 103 ng/g of tissue
  CBD concentration, Retina Choroid: 503 ± 373 ng/g of tissue
[1]; [9]
  Ocular tissue levels of free CBD, in words (Example 13): high levels of Free CBD in the retina choroid and iris-ciliary bodies
  Ocular tissue levels of the applied substance, in words (Example 13): detected in high concentration in the aqueous humor, retina choroid and iris-ciliary bodies
[1]; rabbit eye, topical Tocrisolve emulsion
  Penetration into the ocular tissues, in words (Example 14): superior analog for penetration into the different tissues of the eye
[2]; 0 hr
  Plasma Concentration of CBD-Mono-VHS, Average: 0.0
  Plasma Concentration of CBD-Mono-VHS: 0.0
[2]; 0.25 hr
  Plasma Concentration of CBD-Mono-VHS, Average: 13.2
  Plasma Concentration of CBD-Mono-VHS: 14.7 and 10.1 and 14.8
[2]; 0.5 hr
  Plasma Concentration of CBD-Mono-VHS, Average: 38.5
  Plasma Concentration of CBD-Mono-VHS: 44.2 and 38.4 and 32.9
[2]; 1 hr
  Plasma Concentration of CBD-Mono-VHS, Average: 89.4
  Plasma Concentration of CBD-Mono-VHS: 106.0 and 54.3 and 108.0
[2]; 2 hr
  Plasma Concentration of CBD-Mono-VHS, Average: 114.7
  Plasma Concentration of CBD-Mono-VHS: 108.0 and 123.0 and 113.0
[2]; 4 hr
  Plasma Concentration of CBD-Mono-VHS, Average: 57.2
  Plasma Concentration of CBD-Mono-VHS: 57.5 and 60.5 and 53.5
[2]; 6 hr
  Plasma Concentration of CBD-Mono-VHS, Average: 28.7
  Plasma Concentration of CBD-Mono-VHS: 18.6 and 37.4 and 30.1
[2]; 8 hr
  Plasma Concentration of CBD-Mono-VHS, Average: 24.0
  Plasma Concentration of CBD-Mono-VHS: 44.8 and 21.6 and 27.3
[2]; 24 hr
  Plasma Concentration of CBD-Mono-VHS, Average: 0.9
  Plasma Concentration of CBD-Mono-VHS: 0.0 and 2.5 and 2.6
[3]; 0 hr
  Plasma Concentration of CBD-Mono-VHS, Average: 0.0 ng/mL
  Plasma Concentration of CBD-Mono-VHS: 0.0 ng/mL
[3]; 0.25 hr
  Plasma Concentration of CBD-Mono-VHS, Average: 1029.0 ng/mL
  Plasma Concentration of CBD-Mono-VHS: 1255.5 ng/mL and 1512.3 ng/mL and 370.2 ng/mL and 978.0 ng/mL
[3]; 0.5 hr
  Plasma Concentration of CBD-Mono-VHS, Average: 1626.3 ng/mL
  Plasma Concentration of CBD-Mono-VHS: 1174.8 ng/mL and 2655.0 ng/mL and 1437.1 ng/mL and 1238.2 ng/mL
[3]; 1 hr
  Plasma Concentration of CBD-Mono-VHS, Average: 2127.5 ng/mL
  Plasma Concentration of CBD-Mono-VHS: 1400.6 ng/mL and 3120.9 ng/mL and 2496.6 ng/mL and 1492.0 ng/mL
[3]; 2 hr
  Plasma Concentration of CBD-Mono-VHS, Average: 593.5 ng/mL
  Plasma Concentration of CBD-Mono-VHS: 392.2 ng/mL and 1317.3 ng/mL and 399.5 ng/mL and 264.8 ng/mL
[3]; 4 hr
  Plasma Concentration of CBD-Mono-VHS, Average: 234.8 ng/mL
  Plasma Concentration of CBD-Mono-VHS: 115.1 ng/mL and 423.3 ng/mL and 116.1 ng/mL and 284.8 ng/mL
[3]; 6 hr
  Plasma Concentration of CBD-Mono-VHS, Average: 212.0 ng/mL
  Plasma Concentration of CBD-Mono-VHS: 71.4 ng/mL and 181.0 ng/mL and 397.8 ng/mL and 197.8 ng/mL
[3]; 8 hr
  Plasma Concentration of CBD-Mono-VHS, Average: 152.2 ng/mL
  Plasma Concentration of CBD-Mono-VHS: 44.6 ng/mL and 89.8 ng/mL and 210.0 ng/mL and 264.4 ng/mL
[3]; 24 hr
  Plasma Concentration of CBD-Mono-VHS, Average: 27.2 ng/mL
  Plasma Concentration of CBD-Mono-VHS: 6.5 ng/mL and 37.8 ng/mL and 47.1 ng/mL and 17.5 ng/mL
[3]; oral 4 mg/animal, 24 hr
  blood levels which remain significant at 24 hr. after dosing: > 10 ng/mL
[4]; 2 HR
  Organ level of CBD-Mono-VHS, BRAIN: 556 ng/organ
  Organ level of CBD-Mono-VHS, LIVER: 66484 ng/organ
  Organ level of CBD-Mono-VHS, SPLEEN: 1438 ng/organ
  Plasma level of CBD-Mono-VHS: 285 ng/mL
[4]; 4 HR
  Organ level of CBD-Mono-VHS, BRAIN: 205 ng/organ
  Organ level of CBD-Mono-VHS, LIVER: 8301 ng/organ
  Organ level of CBD-Mono-VHS, SPLEEN: 392 ng/organ
  Plasma level of CBD-Mono-VHS: 53 ng/mL
[5]; 2 HR
  Organ level of CBD-Mono-VHS, KIDNEY: 353 ng/organ
[5]; 4 HR
  Organ level of CBD-Mono-VHS, KIDNEY: 115 ng/organ
[6]
  Effect on morphine place preference, in words: significantly (P=0.005) blocked the addictive effects of morphine
